# From patent US8153167B2, “Herbal medicine for osteoporosis and related conditions” (Medipearl Pte Ltd., priority 2007, dated 2012)
# Read-outs that look alike come from different tables or passages of the source.
# How the values were obtained:
# [1] = system: UMR 106 cell line; conditions: UMR 106 cells in vitro; Wang et al. 2001, Meng et al. 2004; cited from earlier work
# [2] = system: osteoblast-like cells; conditions: Kim et al. (2003), Ha (2003), cited from earlier work
# [3] = system: human osteoblast-like cell lines, MG-63 and hFOB; conditions: Kuo et al. (2005); cited from earlier work
# [4] = system: ovariectomized rats; assay: ovariectomized rat osteoporosis animal model; format: in vivo; conditions: femur, three months, dose not given
# Procedure: Materials have been tested in ovariectomized rats, a popular and generally accepted osteoporosis animal model.
# After orally dosing continuously for three months at 0.12, 0.25, 0.5 and 0.8 g/kg/day, twice a day, the bone mass index, wet weight and dry weight of femur, bone mineral densities of femur and lumbar were measured and calculated. Body weights of rats were measured weekly.
# The effects of the purified composition on the body weight of the rats in the groups described above were determined.
# We measured the body weight of each experimental animal group weekly.
SMILES,osteoblastic proliferation activity [1],proliferation of osteoblast-like cells [2],also measured
"COc1c2ccoc2cc2oc(=O)ccc12 [Bergapten, bergapten]",less effective than osthole,–,–
COC(=O)C1=CO[C@@H](O[C@@H]2O[C@H](CO)[C@@H](O)[C@H](O)[C@H]2O)[C@@H]2C(CO)=CC[C@H]12 [geniposide],–,increased the proliferation of osteoblast-like cells,–
OCC1=C[C@@H](O)[C@@H]2C=CO[C@@H](O[C@@H]3O[C@H](CO)[C@@H](O)[C@H](O)[C@H]3O)[C@H]12 [aucubin],–,increased the proliferation of osteoblast-like cells,–
"COc1ccc2ccc(=O)oc2c1CC=C(C)C [Osthole, osthole]",significantly promoted the cells' activity,–,differentiation of osteoblast-like cells [3]: significantly induced the differentiation
"O=C(O)C1=CO[C@@H](O[C@@H]2O[C@H](CO)[C@@H](O)[C@H](O)[C@H]2O)[C@@H]2C(CO)=CC[C@H]12 [GPA, geniposidic acid]",–,increases the proliferation of osteoblast-like cells,proliferation of osteoblast-like cells ([2]; listed as geniposidic acid): increased the proliferation of osteoblast-like cells
NCCCC(O)(P(=O)(O)O)P(=O)(O)O [Fosamax ®],–,–,Wet Weight (mg/cm) ( x ± s) [4]: 205.8757 ± 18.32 mg/cm
CC(C)=CCOc1c2occc2cc2ccc(=O)oc12 [imperatorin],less effective than osthole,–,–
